{"source": "ChEMBL document CHEMBL1201862", "about": "“PubChem BioAssay data set” (2004)", "assay_in_all_cases": "DTP human tumour cell line panel, 48 h", "key": {"[1]": {"test_system": "HOP-18"}, "[2]": {"test_system": "SNB-78"}, "[3]": {"test_system": "SK-MEL-2"}, "[4]": {"test_system": "DMS-114"}, "[5]": {"test_system": "SNB-75"}, "[6]": {"test_system": "NCI-H522"}, "[7]": {"test_system": "IGROV-1"}, "[8]": {"test_system": "A549"}, "[9]": {"test_system": "CAKI-1"}, "[10]": {"test_system": "KM12"}, "[11]": {"test_system": "COLO 205"}, "[12]": {"test_system": "HOP-62"}, "[13]": {"test_system": "SF-268"}, "[14]": {"test_system": "TK-10"}, "[15]": {"test_system": "786-0"}, "[16]": {"test_system": "M19-MEL"}, "[17]": {"test_system": "OVCAR-5"}, "[18]": {"test_system": "SR"}, "[19]": {"test_system": "SK-MEL-28"}, "[20]": {"test_system": "XF498"}, "[21]": {"test_system": "LXFL 529"}, "[22]": {"test_system": "K562"}, "[23]": {"test_system": "RXF 393"}, "[24]": {"test_system": "HCT-15"}, "[25]": {"test_system": "UACC-257"}, "[26]": {"test_system": "A498"}, "[27]": {"test_system": "SF-295"}, "[28]": {"test_system": "SW-620"}, "[29]": {"test_system": "OVCAR-4"}, "[30]": {"test_system": "OVCAR-3"}, "[31]": {"test_system": "Malme-3M"}, "[32]": {"test_system": "KM-20L2"}, "[33]": {"test_system": "UACC-62"}, "[34]": {"test_system": "HCC 2998"}, "[35]": {"test_system": "SF-539"}, "[36]": {"test_system": "DLD-1"}, "[37]": {"test_system": "NCI-H226"}, "[38]": {"test_system": "OVCAR-8"}, "[39]": {"test_system": "UO-31"}, "[40]": {"test_system": "ACHN"}, "[41]": {"test_system": "CCRF-CEM"}, "[42]": {"test_system": "MOLT-4"}, "[43]": {"test_system": "M14"}, "[44]": {"test_system": "SNB-19"}, "[45]": {"test_system": "LOX IMVI"}, "[46]": {"test_system": "NCI-H23"}, "[47]": {"test_system": "RPMI-8226"}, "[48]": {"test_system": "HCT-116"}, "[49]": {"test_system": "HOP-92"}, "[50]": {"test_system": "DMS-273"}, "[51]": {"test_system": "SN12C"}, "[52]": {"test_system": "SK-MEL-5"}, "[53]": {"test_system": "HT-29"}, "[54]": {"test_system": "NCI-H460"}, "[55]": {"test_system": "HL-60"}, "[56]": {"test_system": "EKVX"}, "[57]": {"test_system": "U-251"}, "[58]": {"test_system": "RXF 631"}}, "note": "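Five compound concentrations were applied to cells in 96-well plates for 48 hours; endpoints were derived by simple linear interpolation of the resulting dose-response curve. At the GI50, growth is halved.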 Active and inactive are the calls of the source. Rule as the data show it: active = GI50 up to about 1.1 µM and inactive = higher."}
{"smiles": "N#CCCN(C1=NN(C(=O)CC(=O)Nc2ccc(Cl)cc2)C(c2ccccc2)C1)c1ccc(Cl)cc1", "note": "(stereo not drawn)", "values": [{"measurement": "GI50", "setting": "[1]", "value": "> 100 µM (inactive)"}, {"measurement": "GI50", "setting": "[2]", "value": "40.4 µM (inactive)"}, {"measurement": "GI50", "setting": "[3]", "value": "> 100 µM (inactive)"}, {"measurement": "GI50", "setting": "[4]", "value": "> 100 µM (inactive)"}, {"measurement": "GI50", "setting": "[5]", "value": "> 100 µM (inactive)"}, {"measurement": "GI50", "setting": "[6]", "value": "> 100 µM (inactive)"}, {"measurement": "GI50", "setting": "[7]", "value": "> 100 µM (inactive)"}, {"measurement": "GI50", "setting": "[8]", "value": "> 100 µM (inactive)"}, {"measurement": "GI50", "setting": "[9]", "value": "> 100 µM (inactive)"}, {"measurement": "GI50", "setting": "[10]", "value": "> 100 µM (inactive)"}, {"measurement": "GI50", "setting": "[11]", "value": "> 100 µM (inactive)"}, {"measurement": "GI50", "setting": "[12]", "value": "> 100 µM (inactive)"}, {"measurement": "GI50", "setting": "[13]", "value": "> 100 µM (inactive)"}, {"measurement": "GI50", "setting": "[14]", "value": "> 100 µM (inactive)"}, {"measurement": "GI50", "setting": "[15]", "value": "> 100 µM (inactive)"}, {"measurement": "GI50", "setting": "[16]", "value": "> 100 µM (inactive)"}, {"measurement": "GI50", "setting": "[17]", "value": "> 100 µM (inactive)"}, {"measurement": "GI50", "setting": "[18]", "value": "> 100 µM (inactive)"}, {"measurement": "GI50", "setting": "[19]", "value": "> 100 µM (inactive)"}, {"measurement": "GI50", "setting": "[20]", "value": "> 100 µM (inactive)"}, {"measurement": "GI50", "setting": "[21]", "value": "> 100 µM (inactive)"}, {"measurement": "GI50", "setting": "[22]", "value": "> 100 µM (inactive)"}, {"measurement": "GI50", "setting": "[23]", "value": "> 100 µM (inactive)"}, {"measurement": "GI50", "setting": "[24]", "value": "> 100", "unit": "µM"}, {"measurement": "GI50", "setting": "[25]", "value": "> 100 µM (inactive)"}, {"measurement": "GI50", "setting": "[26]", "value": "> 100 µM (inactive)"}, {"measurement": "GI50", "setting": "[27]", "value": "> 100 µM (inactive)"}, {"measurement": "GI50", "setting": "[28]", "value": "> 100 µM (inactive)"}, {"measurement": "GI50", "setting": "[29]", "value": "> 100 µM (inactive)"}, {"measurement": "GI50", "setting": "[30]", "value": "> 100 µM (inactive)"}, {"measurement": "GI50", "setting": "[31]", "value": "> 100 µM (inactive)"}, {"measurement": "GI50", "setting": "[32]", "value": "> 100 µM (inactive)"}, {"measurement": "GI50", "setting": "[33]", "value": "> 100 µM (inactive)"}, {"measurement": "GI50", "setting": "[34]", "value": "> 100 µM (inactive)"}, {"measurement": "GI50", "setting": "[35]", "value": "> 100 µM (inactive)"}, {"measurement": "GI50", "setting": "[36]", "value": "> 100 µM (inactive)"}, {"measurement": "GI50", "setting": "[37]", "value": "> 100 µM (inactive)"}, {"measurement": "GI50", "setting": "[38]", "value": "> 100 µM (inactive)"}, {"measurement": "GI50", "setting": "[39]", "value": "> 100 µM (inactive)"}, {"measurement": "GI50", "setting": "[40]", "value": "> 100 µM (inactive)"}, {"measurement": "GI50", "setting": "[41]", "value": "> 100 µM (inactive)"}, {"measurement": "GI50", "setting": "[42]", "value": "> 100 µM (inactive)"}, {"measurement": "GI50", "setting": "[43]", "value": "> 100 µM (inactive)"}, {"measurement": "GI50", "setting": "[44]", "value": "> 100 µM (inactive)"}, {"measurement": "GI50", "setting": "[45]", "value": "> 100 µM (inactive)"}, {"measurement": "GI50", "setting": "[46]", "value": "> 100 µM (inactive)"}, {"measurement": "GI50", "setting": "[47]", "value": "> 100 µM (inactive)"}, {"measurement": "GI50", "setting": "[48]", "value": "> 100 µM (inactive)"}, {"measurement": "GI50", "setting": "[49]", "value": "> 100 µM (inactive)"}, {"measurement": "GI50", "setting": "[50]", "value": "> 100 µM (inactive)"}, {"measurement": "GI50", "setting": "[51]", "value": "> 100 µM (inactive)"}, {"measurement": "GI50", "setting": "[52]", "value": "> 100 µM (inactive)"}, {"measurement": "GI50", "setting": "[53]", "value": "> 100 µM (inactive)"}, {"measurement": "GI50", "setting": "[54]", "value": "> 100 µM (inactive)"}, {"measurement": "GI50", "setting": "[55]", "value": "> 100 µM (inactive)"}, {"measurement": "GI50", "setting": "[56]", "value": "> 100 µM (inactive)"}, {"measurement": "GI50", "setting": "[57]", "value": "> 100 µM (inactive)"}, {"measurement": "GI50", "setting": "[58]", "value": "> 100 µM (inactive)"}]}
